# In ChEMBL document CHEMBL6121038, “Design and Synthesis of Hederagenin Derivatives for the Treatment of Sepsis by Targeting TAK1 and Regulating the TAK1-NF-κB/MAPK Signaling” (J Med Chem, 2025):
# Experiments:
# RAW264.7 [1] = test: Cytotoxicity against mouse RAW264.7 cells assessed as cell viability at 40 uM measured after 24 hrs by MTT assay; format: toxicity, cell-based; details: raw264.7, 24 h
# RAW264.7 [2] = test: Antiinflammatory activity in LPS-induced mouse RAW264.7 cells assessed as inhibition of TNF-alpha level at 20 uM incubated for 24 hrs by ELISA method relative to control; format: functional
# RAW264.7 [3] = test: Antiinflammatory activity in LPS-induced mouse RAW264.7 cells assessed as inhibition of IL-6 level at 20 uM incubated for 24 hrs by ELISA method relative to control; format: functional
# [4] = AUC (0 to infinity) in BALB/c mouse at 10 mg/kg, po measured upto 24 hrs by LC/MS-MS analysis; format: ADME, organism-based; details: in vivo
# [5] = Cmax in BALB/c mouse at 10 mg/kg, po measured upto 24 hrs by LC/MS-MS analysis; format: ADME, organism-based; details: in vivo
# [6] = AUC (0 to t) in BALB/c mouse at 10 mg/kg, po measured upto 24 hrs by LC/MS-MS analysis; format: ADME, organism-based; details: in vivo
# [7] = Tmax in BALB/c mouse at 10 mg/kg, po measured upto 24 hrs by LC/MS-MS analysis; format: ADME, organism-based; details: in vivo
# [8] = Half life in BALB/c mouse at 10 mg/kg, po measured upto 24 hrs by LC/MS-MS analysis; format: ADME, organism-based; details: in vivo
# [9] = Toxicity in BALB/c mouse assessed as histopathological lesions in lung at 10 mg/kg, po by H and E staining based analysis; format: organism-based; details: in vivo
SMILES,Activity (RAW264.7 [1]),inhibition at 20 µM (RAW264.7 [2]) [%],inhibition at 20 µM (RAW264.7 [3]) [%],other results
CCOC(=O)c1noc2c1C[C@@]1(C)[C@@H](CC[C@]3(C)[C@@H]1CC=C1[C@@H]4CC(C)(C)CC[C@]4(C(=O)OCc4ccccc4)CC[C@]13C)[C@]2(C)COC(=O)c1cc2ccccc2[nH]1,Non-toxic,9.1,15,
CCOC(=O)c1noc2c1C[C@@]1(C)[C@@H](CC[C@]3(C)[C@@H]1CC=C1[C@@H]4CC(C)(C)CC[C@]4(C(=O)OCc4ccccc4)CC[C@]13C)[C@]2(C)COC(=O)[C@H](CC(C)C)NC(=O)OC(C)(C)C,Non-toxic,7.45,4.25,
CCOC(=O)c1noc2c1C[C@@]1(C)[C@@H](CC[C@]3(C)[C@@H]1CC=C1[C@@H]4CC(C)(C)CC[C@]4(C(=O)OCc4ccccc4)CC[C@]13C)[C@]2(C)COC(=O)[C@H](Cc1ccccc1)NC(=O)OC(C)(C)C,Non-toxic,59.3,44.9,
CCOC(=O)c1noc2c1C[C@@]1(C)[C@@H](CC[C@]3(C)[C@@H]1CC=C1[C@@H]4CC(C)(C)CC[C@]4(C(=O)OCc4ccccc4)CC[C@]13C)[C@]2(C)COC(=O)CCn1cccc1,Non-toxic,52.5,46.2,
CCOC(=O)c1noc2c1C[C@@]1(C)[C@@H](CC[C@]3(C)[C@@H]1CC=C1[C@@H]4CC(C)(C)CC[C@]4(C(=O)OCc4ccccc4)CC[C@]13C)[C@]2(C)COC(=O)c1cnccn1,Non-toxic,8.27,5.92,
CCOC(=O)c1noc2c1C[C@@]1(C)[C@@H](CC[C@]3(C)[C@@H]1CC=C1[C@@H]4CC(C)(C)CC[C@]4(C(=O)OCc4ccccc4)CC[C@]13C)[C@]2(C)COC(=O)CCC(=O)N[C@@H](CC(C)C)C(=O)OC,Non-toxic,33.1,25.7,
CCOC(=O)c1noc2c1C[C@@]1(C)[C@@H](CC[C@]3(C)[C@@H]1CC=C1[C@@H]4CC(C)(C)CC[C@]4(C(=O)OCc4ccccc4)CC[C@]13C)[C@]2(C)COC(=O)c1ccccc1C(=O)N1CCN(C(C)C)CC1,Non-toxic,22.9,11.4,
CCOC(=O)c1noc2c1C[C@@]1(C)[C@@H](CC[C@]3(C)[C@@H]1CC=C1[C@@H]4CC(C)(C)CC[C@]4(C(=O)OCc4ccccc4)CC[C@]13C)[C@]2(C)COC(=O)CCC(=O)N1CCCCC1,Non-toxic,61,50.6,
CCOC(=O)c1noc2c1C[C@@]1(C)[C@@H](CC[C@]3(C)[C@@H]1CC=C1[C@@H]4CC(C)(C)CC[C@]4(C(=O)OCc4ccccc4)CC[C@]13C)[C@]2(C)COC(=O)[C@H](CCSC)NC(=O)OC(C)(C)C,Non-toxic,15.3,11.7,
CCOC(=O)c1noc2c1C[C@@]1(C)[C@@H](CC[C@]3(C)[C@@H]1CC=C1[C@@H]4CC(C)(C)CC[C@]4(C(=O)OCc4ccccc4)CC[C@]13C)[C@]2(C)COC(=O)CCSSCCC(=O)N1CCN(CC)CC1,,22.7,26.8,
CCOC(=O)c1noc2c1C[C@@]1(C)[C@@H](CC[C@]3(C)[C@@H]1CC=C1[C@@H]4CC(C)(C)CC[C@]4(C(=O)OCc4ccccc4)CC[C@]13C)[C@]2(C)COC(=O)CCSSCCC(=O)N[C@@H](CC(=O)OC)C(=O)OC,Non-toxic,7.53,6.08,
CCOC(=O)c1noc2c1C[C@@]1(C)[C@@H](CC[C@]3(C)[C@@H]1CC=C1[C@@H]4CC(C)(C)CC[C@]4(C(=O)OCc4ccccc4)CC[C@]13C)[C@]2(C)COC(=O)CCC(=O)N[C@@H](CCC(=O)OC)C(=O)OC,Non-toxic,33.6,22,
CCOC(=O)c1noc2c1C[C@@]1(C)[C@@H](CC[C@]3(C)[C@@H]1CC=C1[C@@H]4CC(C)(C)CC[C@]4(C(=O)OCc4ccccc4)CC[C@]13C)[C@]2(C)COC(=O)CCC(=O)N[C@H](CCSC)C(=O)OC,Non-toxic,52.2,44.6,
CCOC(=O)c1noc2c1C[C@@]1(C)[C@@H](CC[C@]3(C)[C@@H]1CC=C1[C@@H]4CC(C)(C)CC[C@]4(C(=O)OCc4ccccc4)CC[C@]13C)[C@]2(C)COC(=O)c1ccccc1C(=O)N[C@@H](CCC(=O)OC)C(=O)OC,Non-toxic,14.8,8.65,
CC1(C)CC[C@]2(C(=O)OCc3ccccc3)CC[C@]3(C)C(=CC[C@@H]4[C@@]5(C)Cc6c(C(=O)O)noc6[C@@](C)(CO)[C@@H]5CC[C@]43C)[C@@H]2C1,,,,AUC(0-inf) [4]: 2720 ng·h/mL; Cmax [5]: 285 ng/mL; AUC(0-t) at 24 h [6]: 2580 ng·h/mL; Tmax [7]: 3 h; half-life [8]: 5.54 h
CCOC(=O)c1noc2c1C[C@@]1(C)[C@@H](CC[C@]3(C)[C@@H]1CC=C1[C@@H]4CC(C)(C)CC[C@]4(C(=O)OCc4ccccc4)CC[C@]13C)[C@]2(C)COC(=O)[C@H](CCC(=O)OC)NC(=O)OC(C)(C)C,Non-toxic,60,55.4,
CCOC(=O)c1noc2c1C[C@@]1(C)[C@@H](CC[C@]3(C)[C@@H]1CC=C1[C@@H]4CC(C)(C)CC[C@]4(C(=O)OCc4ccccc4)CC[C@]13C)[C@]2(C)COC(=O)CCc1c[nH]c2ccccc12,Non-toxic,15.8,18.9,
CCOC(=O)c1noc2c1C[C@@]1(C)[C@@H](CC[C@]3(C)[C@@H]1CC=C1[C@@H]4CC(C)(C)CC[C@]4(C(=O)OCc4ccccc4)CC[C@]13C)[C@]2(C)COC(=O)CCC(=O)N1CCN(CC)CC1,Non-toxic,75.4,66.3,
CC1(C)CC[C@]2(C(=O)OCc3ccccc3)CC[C@]3(C)C(=CC[C@@H]4[C@@]5(C)Cc6c(C(=O)O)noc6[C@@](C)(COC(=O)CCC(=O)N6CCOCC6)[C@@H]5CC[C@]43C)[C@@H]2C1,,,,AUC(0-inf) [4]: 2020 ng·h/mL; Cmax [5]: 209 ng/mL; AUC(0-t) at 24 h [6]: 1290 ng·h/mL; Tmax [7]: 1.5 h; half-life [8]: 4.49 h
CCOC(=O)c1noc2c1C[C@@]1(C)[C@@H](CC[C@]3(C)[C@@H]1CC=C1[C@@H]4CC(C)(C)CC[C@]4(C(=O)OCc4ccccc4)CC[C@]13C)[C@]2(C)COC(=O)CCC(=O)N1CCN(C(C)C)CC1,Non-toxic,78.1,68.6,
CCOC(=O)c1noc2c1C[C@@]1(C)[C@@H](CC[C@]3(C)[C@@H]1CC=C1[C@@H]4CC(C)(C)CC[C@]4(C(=O)OCc4ccccc4)CC[C@]13C)[C@]2(C)COC(=O)CCC(=O)N[C@@H](Cc1ccccc1)C(=O)OC,Non-toxic,31.7,25,
CCOC(=O)c1noc2c1C[C@@]1(C)[C@@H](CC[C@]3(C)[C@@H]1CC=C1[C@@H]4CC(C)(C)CC[C@]4(C(=O)OCc4ccccc4)CC[C@]13C)[C@]2(C)COC(=O)CCC(=O)N[C@@H](CC(=O)OC)C(=O)OC,Non-toxic,54.3,37.6,
C[C@@H]1C[C@H]2[C@@H]3CCC4=CC(=O)C=C[C@]4(C)[C@@]3(F)[C@@H](O)C[C@]2(C)[C@@]1(O)C(=O)CO [DEXAMETHASONE],,80.7,73.5,Activity [9]: Non-toxic
CCOC(=O)c1noc2c1C[C@@]1(C)[C@@H](CC[C@]3(C)[C@@H]1CC=C1[C@@H]4CC(C)(C)CC[C@]4(C(=O)OCc4ccccc4)CC[C@]13C)[C@]2(C)COC(=O)CCSSCCC(=O)N1CCCCC1,Non-toxic,14.2,24.5,
